Converted amounts (≈) assume the structure as drawn. Where two headings read alike, the source gives them in different places.
Legend:
[1] = Cytotoxicity assay, crystal violet staining; format: cell-based, human; conditions: human
Method: (§1) The cytotoxicity of zincophorin, methyl zincophorin, daptomycin (Chemos GmbH, Regenstauf, Germany), and imipenem (Sigma-Aldrich GmbH, Taufkirchen, Germany) was evaluated as described recently, [20]. Briefly, serial twofold compounds concentration were prepared in Eagle’s minimum essential medium supplemented with 2 mM L-glutamine or Dulbecco’s Modified Eagle Medium (Lonza Group Ltd., Basel, Switzerland) and added to three-day-old confluent human lung carcinoma cells (A549; Institute of Molecular Virology, University of Münster, Germany) and Madin-Darby canine kidney cell (MDCK; Friedrich-Loeffler Institute, Riems, Germany) monolayers grown in 96-well plates (Greiner bio-one GmbH, Frickenhausen, Germany), respectively. […] After dye elution and optical density measurement the 50% cytotoxic concentration (CC50) was calculated.

[2] = system: S. pneumoniae DSM20566; conditions: DSM20566, 18 h
[3] = system: S. pneumoniae clinical isolate 8828; conditions: clinical isolate 8828, 18 h
[4] = system: S. pneumoniae clinical isolate 8919
[5] = system: S. pneumoniae clinical isolate 9400
[6] = system: S. pneumoniae D39
[7] = system: S. pneumoniae D39; conditions: D39, 18 h
[8] = system: S. pneumoniae clinical isolate 9400; conditions: clinical isolate 9400, 18 h
[9] = Cytotoxicity assay, crystal violet staining; format: cell-based, canine; conditions: dog
Method: as §1

[10] = system: S. pneumoniae clinical isolate 6937; conditions: clinical isolate 6937, 18 h
[11] = system: S. pneumoniae clinical isolate 8828
[12] = system: S. pneumoniae DSM14378
[13] = system: S. pneumoniae DSM14378; conditions: DSM14378, 18 h
[14] = system: S. pneumoniae clinical isolate 8919; conditions: clinical isolate 8919, 18 h
[15] = system: S. pneumoniae clinical isolate 6937
[16] = system: S. pneumoniae DSM20566
[17] = system: S. pneumoniae clinical isolate 6937; assay: microbe, parasite or virus in culture; conditions: Streptococcus pneumoniae, 18 h, read-out: MIC (6937)
[18] = system: S. pneumoniae clinical isolate 9400; assay: microbe, parasite or virus in culture; conditions: Streptococcus pneumoniae, 18 h, read-out: MIC (9400)
[19] = system: S. pneumoniae DSM20566; assay: microbe, parasite or virus in culture; conditions: Streptococcus pneumoniae, DSM20566, 18 h, read-out: MIC (DSM20566)
[20] = system: S. pneumoniae clinical isolate 8828; assay: microbe, parasite or virus in culture; conditions: Streptococcus pneumoniae, 18 h, read-out: MIC (8828)
[21] = system: S. pneumoniae DSM14378; assay: microbe, parasite or virus in culture; conditions: Streptococcus pneumoniae, DSM14378, 18 h, read-out: MIC (DSM14378)
[22] = system: S. pneumoniae D39; assay: microbe, parasite or virus in culture; conditions: Streptococcus pneumoniae, D39, 18 h, read-out: MIC (D39)
[23] = system: S. pneumoniae clinical isolate 8919; assay: microbe, parasite or virus in culture; conditions: Streptococcus pneumoniae, 18 h, read-out: MIC (8919)
[24] = system: Streptococcus pneumoniae; assay: Antimicrobial assays, all tested S. pneumoniae strains; conditions: pneumococci; maximum tested concentration 50 µM; data not shown
[25] = system: human lung carcinoma cells (A549); assay: Cytotoxicity assay, crystal violet staining; format: cell-based; conditions: A549 cells
Method: as §1

[26] = system: Madin-Darby canine kidney cell (MDCK); assay: Cytotoxicity assay, crystal violet staining; format: cell-based; conditions: MDCK cells
Method: as §1

[27] = system: Clostridium welchii (Clostridium perfringens); conditions: cited from earlier work
[28] = A549 lung carcinoma cells (confluent monolayers), A549 cells, 72 h, maximum tested 100 µM, mean with standard deviation, read-out: 50% cytotoxic concentration (CC50), A549
[29] = clinical isolate 9400, biofilm formation inhibited ≥90%, 24 h, TSB, mean with standard deviation
[30] = reference strain D39, biofilm formation inhibited ≥90%, 24 h, TSB, mean with standard deviation
[31] = reference strain DSM14378, biofilm formation inhibited ≥90%, 24 h, TSB, mean with standard deviation
[32] = clinical isolate 6937, biofilm formation inhibited ≥90%, 24 h, TSB, mean with standard deviation
[33] = reference strain DSM20566, biofilm formation inhibited ≥90%, 24 h, TSB, mean with standard deviation
[34] = MDCK cells (confluent monolayers), MDCK cells, 72 h, maximum tested 100 µM, mean with standard deviation, read-out: 50% cytotoxic concentration (CC50), MDCK

| SMILES | CC50 at 72 h [1, 28] | MIC [17] | MIC [18] | MBIC (9400) [5, 29] | MIC [19] | MIC [20] | MBIC (D39) [6, 30] | MIC [21] | MIC [22] | MIC [23] | MBIC (DSM14378) [12, 31] | MBIC (6937) [15, 32] | MBIC (DSM20566) [16, 33] | CC50 at 72 h [9, 34] | other results |
| --- | --- | --- | --- | --- | --- | --- | --- | --- | --- | --- | --- | --- | --- | --- | --- |
| CCCCCCCCCC(=O)N[C@@H](Cc1c[nH]c2ccccc12)C(=O)N[C@H](CC(N)=O)C(=O)N[C@@H](CC(=O)O)C(=O)N[C@@H]1C(=O)NCC(=O)N[C@@H](CCCN)C(=O)N[C@@H](CC(=O)O)C(=O)N[C@H](C)C(=O)N[C@@H](CC(=O)O)C(=O)NCC(=O)N[C@H](CO)C(=O)N[C@@H]([C@H](C)CC(=O)O)C(=O)N[C@@H](CC(=O)c2ccccc2N)C(=O)O[C@@H]1C [daptomycin] |  |  |  |  |  |  |  |  |  |  |  |  |  |  | CC50 at 72 h [1]: > 100 µM; MIC (DSM20566) [2]: 1.94 ± 0.91 µM (≈ 3.14 µg/mL); MIC (8828) [3]: 0.86 ± 0.50 µM (≈ 1.39 µg/mL); MBIC (8919) ([4]; clinical isolate 8919, 24 h): 0.49 ± 0.26 µM; MBIC (9400) ([5]; clinical isolate 9400, 24 h): 2.28 ± 1.81 µM; MBIC (D39) ([6]; D39, 24 h): 6.10 ± 0.79 µM; MIC (D39) [7]: 2.80 ± 0.11 µM (≈ 4.54 µg/mL); MIC (9400) [8]: 0.96 ± 0.56 µM (≈ 1.56 µg/mL); CC50 at 72 h [9]: > 100 µM; MIC (6937) [10]: 0.48 ± 0.18 µM (≈ 0.778 µg/mL); MBIC (8828) ([11]; clinical isolate 8828, 24 h): 0.48 ± 0.21 µM; MBIC (DSM14378) ([12]; DSM14378, 24 h): 1.99 ± 1.38 µM; MIC (DSM14378) [13]: 0.54 ± 0.18 µM (≈ 0.875 µg/mL); MIC (8919) [14]: 0.31 ± 0.08 µM (≈ 0.502 µg/mL); MBIC (6937) ([15]; clinical isolate 6937, 24 h): 1.66 ± 1.21 µM; MBIC (DSM20566) ([16]; DSM20566, 24 h): 1.92 ± 1.07 µM |
| C[C@@H](O)[C@H]1C(=O)N2C(C(=O)O)=C(SCCN=CN)C[C@H]12 [imipenem] | > 100 µM | 0.01 µM (≈ 0.00299 µg/mL) | 0.01 ± 0.01 µM (≈ 0.00299 µg/mL) | 0.36 ± 0.02 µM | 0.03 ± 0.01 µM (≈ 0.00898 µg/mL) | 0.02 µM (≈ 0.00599 µg/mL) | 0.07 ± 0.03 µM | 0.02 ± 0.01 µM (≈ 0.00599 µg/mL) | 0.02 µM (≈ 0.00599 µg/mL) | 0.49 ± 0.17 µM (≈ 0.147 µg/mL) | 0.19 ± 0.01 µM | 0.22 ± 0.14 µM | 0.06 ± 0.03 µM |  |  |
| CCC[C@@H](C)/C=C(\C)[C@H](O)[C@H](C)/C=C/CC[C@@H](O)[C@H](C)[C@H](O)[C@H](C)[C@H](O)[C@H](C)[C@H]1O[C@H]([C@H](C)C(=O)OC)CC[C@@H]1C [zincophorin methyl ester] | > 100 µM |  |  |  |  |  |  |  |  |  |  |  |  | > 100 µM | antibacterial effect (highest concentration without effect) [24]: > 50 µM |
| CCCC(C)C=C(C)C(O)C(C)C=CCCC(O)C(C)C(O)C(C)C(O)C(C)C1OC(C(C)C(=O)O)CCC1C (stereo not drawn) [zincophorin] | 1.02 ± 0.63 µM | 0.18 µM (≈ 0.102 µg/mL) | 0.14 ± 0.07 µM (≈ 0.0796 µg/mL) | 0.36 ± 0.01 µM | 0.18 ± 0.02 µM (≈ 0.102 µg/mL) | 0.22 ± 0.04 µM (≈ 0.125 µg/mL) | 0.40 ± 0.24 µM | 0.1 ± 0.05 µM (≈ 0.0569 µg/mL) | 0.21 ± 0.11 µM (≈ 0.119 µg/mL) | 0.09 ± 0.01 µM (≈ 0.0512 µg/mL) | 0.13 ± 0.06 µM | 0.46 ± 0.25 µM | 0.17 ± 0.03 µM | 0.63 ± 0.27 µM | cytotoxic effects in words, A549 [25]: strong cytotoxic effects; MBIC (8919) ([4]; clinical isolate 8919, biofilm formation inhibited ≥90%, 24 h, TSB, mean with standard deviation): 0.15 ± 0.01 µM; cytotoxic effects in words, MDCK [26]: strong cytotoxic effects; MBIC (8828) ([11]; clinical isolate 8828, biofilm formation inhibited ≥90%, 24 h, TSB, mean with standard deviation): 0.28 ± 0.06 µM; activity against Clostridium welchii [27]: particularly active |

From PMC6301713, “Zincophorin – biosynthesis in Streptomyces griseus and antibiotic properties” (GMS Infectious Diseases, 2016)
